ChEMBL document CHEMBL4428095, “Evolution of physicochemical properties of melanin concentrating hormone receptor 1 (MCHr1) antagonists” (Bioorg Med Chem Lett, 2016)

Key:
[1] = Protein binding in monkey serum; type: ADME, cell-free, Macaca mulatta; conditions: rhesus monkey, read-out: PB (converted)
[2] = Protein binding in human serum; type: ADME, cell-free; conditions: read-out: PB (converted)
[3] = Protein binding in rat serum; type: ADME, cell-free

fraction unbound [1]: 0.007 | fraction unbound [2]: 0.005 | PB [3]: 99.8%
Compound: COc1cc(-n2cnc3cc(-c4ccc(Cl)cc4)sc3c2=O)ccc1OC[C@H](O)C1CC1
